Values quoted from earlier work in patent US12168056B2, “Scintillator nanocrystal-containing compositions and methods for their use” (The Regents of the University of California, priority 2013, dated 2024).

Tested on: human glioblastoma (GBM) cells

Q: For COc1cccc2c1C(=O)c1c(O)c3c(c(O)c1C2=O)C[C@@](O)(C(=O)CO)C[C@@H]3O[C@H]1C[C@H](N)[C@H](O)[C@H](C)O1 [Dox, doxorubicin], which “suppression of GBM cells in culture” value is on record?
A: potently suppresses
